Source: patent publication US12643882B2, “Inhibitors of human respiratory syncytial virus and metapneumovirus” (priority 2022, dated 2026)
Like-named read-outs stand apart in the source and are kept apart here.

How the values were obtained:
[1] = system: RSV-A2-GFP virus; experiment: microbe, parasite or virus in culture; format: cell-based, Human Respiratory Syncytial Virus
In short: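 IC50 (GFP-expressing cell counts by Acumen imaging) and CC50 (same-well CellTiter-Glo) were obtained by 4-parameter logistic fitting. Compounds were tested in 10-point 3-fold series for 96 h at 37° C, 5% CO2. Thawed Calu-1 ARF cells were infected at MOI 1.2 with GFP-reporter RSV-A2 in 2% FBS DMEM.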

[2] = system: hMPV-GFP virus; experiment: microbe, parasite or virus in culture; format: cell-based, human metapneumovirus
In short: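 Antiviral IC50 was derived from imaging counts of GFP-expressing cells, with CC50 from a same-well CellTiter-Glo read, both by 4-parameter logistic fitting. VERO cells plus hMPV-GFP (MOI 1.25) were exposed 48 h at 37 °C to 10-point 3-fold compound dilutions (typical final 40,300–2 nM).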

[3] = Calu-1 cells infected with RSV-A2-GFP, 96 hrs, GFP-expressing cells counted, read-out: RSV EC50
[4] = VERO cells infected with hMPV-GFP, 48 hrs, GFP-expressing cells counted, read-out: hMPV EC50
[5] = human respiratory syncytial virus, Calu-1, 96 h, read-out: RSV EC50, Calu-1 cells infected with RSV-A2-GFP, 96 hrs, GFP-expressing cells counted
[6] = human metapneumovirus, Vero, 48 h, read-out: hMPV EC50, VERO cells infected with hMPV-GFP, 48 hrs, GFP-expressing cells counted

Structure (SMILES)	EC50 [1, 3] [nM]	EC50 [2, 4] [nM]	EC50 [1, 5] [nM]	EC50 [2, 6] [nM]
CC(C)(N)c1cc(O[C@H]2[C@@H]3CN(C(=O)c4cn(-c5ncccn5)nc4C(F)(F)F)C[C@@H]32)nc(-c2ccc(C(F)(F)F)cc2)c1 [Example 93, ((1R,5S,6s)-6-((4-(2-aminopropan-2-yl)-6-(4-(trifluoromethyl)phenyl)pyridin-2-yl)oxy)-3-azabicyclo[3.1.0]hexan-3-yl)(1-(pyrimidin-2-yl)-3-(trifluoromethyl)-1H-pyrazol-4-yl)methanone]	< 10	> 100	–	–
Cc1nn(-c2ncccn2)cc1C(=O)N1C[C@@H]2[C@H](C1)[C@H]2Oc1cc(C(C)(C)N)cc(-n2ncc3c(Cl)cccc32)n1 [Example 94, ((1R,5S,6s)-6-((4-(2-aminopropan-2-yl)-6-(4-chloro-1H-indazol-1-yl)pyridin-2-yl)oxy)-3-azabicyclo[3.1.0]hexan-3-yl)(3-methyl-1-(pyrimidin-2-yl)-1H-pyrazol-4-yl)methanone]	–	–	< 10	> 100
CC(C)(N)c1cc(O[C@H]2[C@@H]3CN(C(=O)c4cn(-c5ncccn5)nc4CO)C[C@@H]32)nc(-c2ccc(F)c(F)c2)c1 [Example 95, ((1R,5S,6s)-6-((4-(2-aminopropan-2-yl)-6-(3,4-difluorophenyl)pyridin-2-yl)oxy)-3-azabicyclo[3.1.0]hexan-3-yl)(3-(hydroxymethyl)-1-(pyrimidin-2-yl)-1H-pyrazol-4-yl)methanone]	–	–	< 10	> 100
Cc1nc(-c2ncccn2)sc1C(=O)N1C[C@@H]2[C@H](C1)[C@H]2Oc1cc(C(C)(C)N)cc(-c2ccc(F)cc2F)n1 [Example 97, ((1R,5S,6s)-6-((4-(2-aminopropan-2-yl)-6-(2,4-difluorophenyl)pyridin-2-yl)oxy)-3-azabicyclo[3.1.0]hexan-3-yl)(4-methyl-2-(pyrimidin-2-yl)thiazol-5-yl)methanone]	–	–	< 10	10 to 100
Cn1nc(-c2ncccn2)cc1C(=O)N1C[C@@H]2[C@H](C1)[C@H]2Oc1cc(C(C)(C)N)cc(-c2ccc3c(c2)CC3(F)F)n1 [Example 98, ((1R,5S,6s)-6-((4-(2-aminopropan-2-yl)-6-(7,7-difluorobicyclo[4.2.0]octa-1(6),2,4-trien-3-yl)pyridin-2-yl)oxy)-3-azabicyclo[3.1.0]hexan-3-yl)(1-methyl-3-(pyrimidin-2-yl)-1H-pyrazol-5-yl)methanone]	< 10	> 100	–	–
Cc1nn(-c2ncccn2)cc1C(=O)N1C[C@@H]2[C@H](C1)[C@H]2Oc1cc(C(C)(C)N)cc(-c2ccc3c(c2)CC3(F)F)n1 [Example 99, ((1R,5S,6s)-6-((4-(2-aminopropan-2-yl)-6-(7,7-difluorobicyclo[4.2.0]octa-1(6),2,4-trien-3-yl)pyridin-2-yl)oxy)-3-azabicyclo[3.1.0]hexan-3-yl)(3-methyl-1-(pyrimidin-2-yl)-1H-pyrazol-4-yl)methanone]	< 10	> 100	–	–
Cc1nn(-c2ncccn2)cc1C(=O)N1C[C@@H]2[C@H](C1)[C@H]2Oc1cc(C(C)(C)N)cc(N2CCC(C)(C)CC2)n1 [Example 100, ((1R,5S,6s)-6-((4-(2-aminopropan-2-yl)-6-(4,4-dimethylpiperidin-1-yl)pyridin-2-yl)oxy)-3-azabicyclo[3.1.0]hexan-3-yl)(3-methyl-1-(pyrimidin-2-yl)-1H-pyrazol-4-yl)methanone]	< 10	> 100	–	–
CC1(C)CCN(c2cc(C(C)(C)N)cc(O[C@H]3[C@@H]4CN(C(=O)c5cn(-c6ncccn6)nc5C(F)F)C[C@@H]43)n2)CC1 [Example 101, ((1R,5S,6s)-6-((4-(2-aminopropan-2-yl)-6-(4,4-dimethylpiperidin-1-yl)pyridin-2-yl)oxy)-3-azabicyclo[3.1.0]hexan-3-yl)(3-(difluoromethyl)-1-(pyrimidin-2-yl)-1H-pyrazol-4-yl)methanone]	< 10	> 100	–	–
Cc1nn(-c2ncccn2)cc1C(=O)N1C[C@@H]2[C@H](C1)[C@H]2Oc1cc(C(C)(C)N)cc(N2CCC(C(F)(F)F)CC2)n1 [Example 102, ((1R,5S,6s)-6-((4-(2-aminopropan-2-yl)-6-(4-(trifluoromethyl)piperidin-1-yl)pyridin-2-yl)oxy)-3-azabicyclo[3.1.0]hexan-3-yl)(3-methyl-1-(pyrimidin-2-yl)-1H-pyrazol-4-yl)methanone]	< 10	> 100	–	–
Cc1nc(-c2ncccn2)sc1C(=O)N1C[C@@H]2[C@H](C1)[C@H]2Oc1cc(-c2ccc(F)cc2)nc(C(C)(C)N)c1 [Example 114, ((1R,5S,6s)-6-((2-(2-aminopropan-2-yl)-6-(4-fluorophenyl)pyridin-4-yl)oxy)-3-azabicyclo[3.1.0]hexan-3-yl)(4-methyl-2-(pyrimidin-2-yl)thiazol-5-yl)methanone]	–	–	< 10	> 100
Cc1nc(-c2ncccn2)sc1C(=O)N1C[C@@H]2[C@H](C1)[C@H]2Oc1cc(-c2ccc(F)cc2)cc(C(C)(C)N)n1 [Example 115, ((1R,5S,6s)-6-((6-(2-aminopropan-2-yl)-4-(4-fluorophenyl)pyridin-2-yl)oxy)-3-azabicyclo[3.1.0]hexan-3-yl)(4-methyl-2-(pyrimidin-2-yl)thiazol-5-yl)methanone]	–	–	< 10	> 100
CCC(N)c1cc(O[C@H]2[C@@H]3CN(C(=O)c4cn(-c5ncccn5)nc4C)C[C@@H]32)nc(-c2ccc(F)cc2)c1 (stereo partly drawn) [Example 117A, ent-((1R,5S,6s)-6-((4-(1-aminopropyl)-6-(4-fluorophenyl)pyridin-2-yl)oxy)-3-azabicyclo[3.1.0]hexan-3-yl)(3-methyl-1-(pyrimidin-2-yl)-1H-pyrazol-4-yl)methanone]	< 10	> 100	–	–
Cc1nn(-c2ncccn2)cc1C(=O)N1C[C@@H]2[C@H](C1)[C@H]2Oc1cc(C(N)C(C)C)cc(-c2ccc(F)cc2)n1 (stereo partly drawn) [Example 118A, ent-((1R,5S,6s)-6-((4-(1-amino-2-methylpropyl)-6-(4-fluorophenyl)pyridin-2-yl)oxy)-3-azabicyclo[3.1.0]hexan-3-yl)(3-methyl-1-(pyrimidin-2-yl)-1H-pyrazol-4-yl)methanone]	< 10	> 100	–	–
Cc1nn(-c2ncccn2)cc1C(=O)N1C[C@@H]2[C@H](C1)[C@H]2Oc1cc(C(C)(C)N)c(F)c(-c2ccc(F)cc2)n1 [Example 119, ((1R,5S,6s)-6-((4-(2-aminopropan-2-yl)-5-fluoro-6-(4-fluorophenyl)pyridin-2-yl)oxy)-3-azabicyclo[3.1.0]hexan-3-yl)(3-methyl-1-(pyrimidin-2-yl)-1H-pyrazol-4-yl)methanone]	–	–	< 10	> 100
Cc1nn(-c2ncccn2)cc1C(=O)N1C[C@@H]2[C@H](C1)[C@H]2Oc1cc(C(C)(C)N)c(Cl)c(-c2ccc(F)cc2)n1 [Example 120, ((1R,5S,6s)-6-((4-(2-aminopropan-2-yl)-5-chloro-6-(4-fluorophenyl)pyridin-2-yl)oxy)-3-azabicyclo[3.1.0]hexan-3-yl)(3-methyl-1-(pyrimidin-2-yl)-1H-pyrazol-4-yl)methanone]	–	–	< 10	> 100
COc1nn(-c2ncccn2)cc1C(=O)N1C[C@@H]2[C@H](C1)[C@H]2Oc1cc(C(C)(C)N)c(Cl)c(-c2ccc(F)cc2)n1 [Example 121, ((1R,5S,6s)-6-((4-(2-aminopropan-2-yl)-5-chloro-6-(4-fluorophenyl)pyridin-2-yl)oxy)-3-azabicyclo[3.1.0]hexan-3-yl)(3-methoxy-1-(pyrimidin-2-yl)-1H-pyrazol-4-yl)methanone]	< 10	> 100	–	–
COc1nn(-c2ncccn2)cc1C(=O)N1C[C@@H]2[C@H](C1)[C@H]2Oc1cc(C(C)(C)N)cc(N2CCC(C)(C)CC2)n1 [Example 122, ((1R,5S,6s)-6-((4-(2-aminopropan-2-yl)-6-(4,4-dimethylpiperidin-1-yl)pyridin-2-yl)oxy)-3-azabicyclo[3.1.0]hexan-3-yl)(3-methoxy-1-(pyrimidin-2-yl)-1H-pyrazol-4-yl)methanone]	–	–	< 10	> 100
Cc1nc(-c2ncccn2)sc1C(=O)N1C[C@@H]2[C@H](C1)[C@H]2Oc1cc(C(C)(C)N)cc(N2CCC(C)(C)CC2)n1 [Example 123, ((1R,5S,6s)-6-((4-(2-aminopropan-2-yl)-6-(4,4-dimethylpiperidin-1-yl)pyridin-2-yl)oxy)-3-azabicyclo[3.1.0]hexan-3-yl)(4-methyl-2-(pyrimidin-2-yl)thiazol-5-yl)methanone]	< 10	> 100	–	–
CCc1nn(-c2ncccn2)cc1C(=O)N1C[C@@H]2[C@H](C1)[C@H]2Oc1cc(C(C)(C)N)cc(N2CCC(C)(C)CC2)n1 [Example 124, ((1R,5S,6s)-6-((4-(2-aminopropan-2-yl)-6-(4,4-dimethylpiperidin-1-yl)pyridin-2-yl)oxy)-3-azabicyclo[3.1.0]hexan-3-yl)(3-ethyl-1-(pyrimidin-2-yl)-1H-pyrazol-4-yl)methanone]	< 10	> 100	–	–
Cc1nc(-c2ncccn2)sc1C(=O)N1C[C@@H]2[C@H](C1)[C@H]2Oc1cc(C(C)(C)N)cc(N2CCC(C(F)(F)F)CC2)n1 [Example 125, ((1R,5S,6s)-6-((4-(2-aminopropan-2-yl)-6-(4-(trifluoromethyl)piperidin-1-yl)pyridin-2-yl)oxy)-3-azabicyclo[3.1.0]hexan-3-yl)(4-methyl-2-(pyrimidin-2-yl)thiazol-5-yl)methanone]	< 10	> 100	–	–
